# Results taken from article PMC8568133, “Evaluation of bisphenylthiazoles as a promising class for combating multidrug-resistant fungal infections” (PLoS ONE, 2021).
# Read-outs that look alike come from different tables or passages of the source.
# What was measured:
# Cryptococcus gattii = test: Antifungal broth microdilution MIC (50% growth inhibition, 48 h); assay type: cell-based; details: Cryptococcus gattii, read-out: MIC
# Experimental: (§1) Serial dilutions (from 128 μg/mL to 0.06 μg/mL) of the tested compounds and control drugs (fluconazole, itraconazole and amphotericin) (in triplicates), were screened against clinical isolates of Candida albicans, Candida auris, Candida glabrata, Candida parapsilosis, Candida tropicalis, Candida krusei, Cryptococcus neoformans, Cryptococcus gattii and Aspergillus fumigatus species using the broth microdilution method according to the Clinical and Laboratory Standards Institute guidelines. MICs were determined as the lowest concentration of the compounds that inhibited the fungal growth by 50% after incubation at 35 °C for 24 h (for Candida and Aspergillus), or 48 h (for Cryptococcus). The minimum fungicidal concentration (MFC) of these compounds was tested by plating 4 μL from wells with no growth onto YPD agar plates. The plates were incubated at 37 °C for 24 hours before recording the MFC, which was categorized as the lowest concentration that reduced fungal growth by 99.9% [45]. The experiment was repeated three independent times.
# Cryptococcus neoformans = test: as above; assay type: cell-based; details: Cryptococcus neoformans, read-out: MIC
# Experimental: as §1
# Candida auris = test: Checkerboard assay of compound 17 with standard antifungals; assay type: cell-based; details: for MIC: Candidozyma auris, checkerboard, agent alone
# [1] = test system: Lactobacillus casei ATCC-334; test: Broth microdilution MIC against normal human microbiota; assay type: cell-based; details: Lacticaseibacillus casei, ATCC334; Lactobacillus casei ATCC-334; read-out: MIC
# Experimental: (§2) Broth microdilution was utilized to determine the activity of bisphenylthiazoles against the human gut microflora as described elsewhere. A bacterial solution equivalent to 0.5 McFarland standards was prepared and diluted in MRS broth to achieve a bacterial concentration of approximately 5 x 10^5 CFU/mL. Then, compounds/control antifungals (in triplicates), were added to the plates and serially diluted with media containing bacteria. The plates were incubated for 48 hours at 37 °C before recording the MIC values. The experiment was repeated three independent times.
# [2] = test system: Lactobacillus gasseri HM-400; test: as above; assay type: cell-based; details: HM400; Lactobacillus gasseri HM-400; read-out: MIC
# Experimental: as §2
# [3] = test system: Lactobacillus crispatus HM-370; test: as above; assay type: cell-based; details: HM370; Lactobacillus crispatus HM-370; read-out: MIC
# Experimental: as §2
# Aspergillus fumigatus = test: Antifungal broth microdilution MIC (50% growth inhibition); assay type: cell-based; details: Aspergillus fumigatus
# Summary of the method: (§3)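 Clinical isolates were tested in triplicate by CLSI broth microdilution over 128–0.06 μg/mL. MIC was the lowest concentration giving 50% growth inhibition after 35 °C incubation, 24 h for Candida, 48 h for Cryptococcus. For MFC, wells without growth were plated on YPD agar, 37 °C for 24 hours; MFC meant 99.9% growth reduction.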
# Candida parapsilosis = test: as above; assay type: cell-based; details: Lodderomyces parapsilosis, read-out: MIC
# Summary of the method: as §3
# [4] = test system: monkey kidney epithelial cells (Vero); test: In vitro cytotoxicity, MTS assay
# Experimental: (§4) Fig 2 In vitro cytotoxicity assay of bisphenylthiazole compounds 7, 16 and 17 (tested in triplicates at 32, 64 and 128 μg/mL) against: A) human colorectal cells (Caco-2), and B) monkey kidney epithelial cells (Vero) after 24-hours exposure time, using the MTS 3-(4,5-dimethylthiazol-2-yl)-5-(3-carboxymethoxyphenyl)-2-(4-sulfophenyl)-2H-tetrazolium) assay. The data represent the percentage of viable Caco-2 or Vero cells measured as the average absorbance relative to DMSO after exposure to the tested compounds. Dimethyl sulfoxide (DMSO) was used as a negative control. Error bars represent the standard deviation values.
# (§5) To explore the tolerability of bisphenylthiazoles, their cytotoxicity profile was assessed in human colorectal adenocarcinoma (Caco-2) and monkey kidney epithelial cells (Vero) as described earlier. Briefly, compounds were incubated with the cells for 24 hours. Then, cells were incubated with MTS reagent for 3 hours before measuring the absorbance values (OD490). The experiment was repeated in two independent times.
# [5] = test system: human colorectal cells (Caco-2); test: In vitro cytotoxicity, MTS assay; details: human, 24 h
# Experimental: as §4, §5
# [6] = test system: C. difficile ATCC BAA1870; test: Broth microdilution MIC, initial antibacterial screening (anaerobic); assay type: cell-based, Clostridioides difficile; details: Clostridioides difficile, ATCCBAA1870, read-out: MIC
# Summary of the method: (§6)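 Broth microdilution per CLSI with ~5 × 10^5 CFU/mL inoculum and serially diluted compounds. S. aureus and E. coli were tested in CAMHB, aerobic, 37 °C, 18–20 h; C. difficile in supplemented brain heart infusion broth (yeast extract, hemin, vitamin K), anaerobic, 37 °C, 48 h. MIC read as visible growth.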
# [7] = test system: E. coli BW25113 (wild-type); test: Broth microdilution MIC, initial antibacterial screening; assay type: cell-based, Escherichia coli; details: Escherichia coli, read-out: MIC
# Summary of the method: as §6
# MRSA USA300 = test: as above; assay type: cell-based, S. aureus; details: Staphylococcus aureus; MRSA USA300; read-out: MIC
# Summary of the method: as §6
# Candida strains = test: Minimum fungicidal concentration, summary over Candida strains; assay type: cell-based; details: strains of Table 6
# Experimental: as §1
structure (smiles),measurement,setting,value
"Cc1nc(-c2ccc(-c3ccccc3)cc2)sc1-c1nnc(N[C@@H]2CCCC[C@@H]2N)o1 (relative stereo) [Compound 17, cis-N-{5-[2-((1,1’-Biphenyl)-4-yl)-4-methylthiazol-5-yl]-1,3,4-oxadiazol-2-yl}cyclo-hexane-1,2-diamine]",MIC,Cryptococcus gattii; C. gattii NR 43209,0.5 µg/mL
same,MIC,Cryptococcus gattii; C. gattii NR 43210,0.5 µg/mL
same,MIC,Cryptococcus neoformans; C. neoformans NR 41298,1 µg/mL
same,MIC,Cryptococcus neoformans; C. neoformans NR 41300,1 µg/mL
same,MIC,Cryptococcus neoformans; C. neoformans NR 48770,1 µg/mL
same,melting point,,145 to 146 °C
same,"MIC Combined, 17","Candida auris; Candida auris 381, compound 17 in combination with 5-Fluorocytosine",0.25 µg/mL
same,"MIC Combined, 17","Candida auris; Candida auris 381, compound 17 in combination with Amphotericin B",0.25 µg/mL
same,"MIC Combined, 17","Candida auris; Candida auris 381, compound 17 in combination with Caspofungin",0.25 µg/mL
same,"MIC Combined, 17","Candida auris; Candida auris 381, compound 17 in combination with Fluconazole",0.25 µg/mL
same,"MIC Combined, 17","Candida auris; Candida auris 385, compound 17 in combination with 5-Fluorocytosine",0.25 µg/mL
same,"MIC Combined, 17","Candida auris; Candida auris 385, compound 17 in combination with Amphotericin B",0.25 µg/mL
same,"MIC Combined, 17","Candida auris; Candida auris 385, compound 17 in combination with Caspofungin",0.25 µg/mL
same,"MIC Combined, 17","Candida auris; Candida auris 385, compound 17 in combination with Fluconazole",2 µg/mL
same,MIC,Candida auris; Candida auris 381 (azole-sensitive),1 µg/mL
same,MIC,Candida auris; Candida auris 385 (azole-resistant),2 µg/mL
same,relationship when combined with antifungals,"Candida auris; combined with either fluconazole, 5-fluorocytosine or caspofungin, two tested C. auris isolates",additive
same,MIC,[1],128 µg/mL
same,MIC,[2],128 µg/mL
same,MIC,[3],> 128 µg/mL
same,MIC,"Aspergillus fumigatus; A. fumigatus NR 35303, read-out: MIC",4 µg/mL
same,MIC,"Aspergillus fumigatus; A. fumigatus NR 35304, read-out: MIC",4 µg/mL
same,MIC,"Aspergillus fumigatus; tested A. fumigatus isolates (Table 5), read-out: MIC against Aspergillus fumigatus",4 µg/mL
same,MIC,"Candida parapsilosis; ATCC22019, C. parapsilosis ATCC 22019",1 µg/mL
same,MIC,Candida parapsilosis; C. parapsilosis CAB 502638,1 µg/mL
same,concentration up to which non-toxic,"[4]; Vero, 24 h exposure, MTS",≤ 64 µg/mL
same,times more tolerable than amphotericin B,[4]; relative to amphotericin B,16 times
same,concentration up to which non-toxic,[5],≤ 64 µg/mL
same,MIC,[6],64 µg/mL
same,MIC,[7],> 64 µg/mL
same,MIC,MRSA USA300,> 64 µg/mL
same,fungistatic or fungicidal activity,Candida strains,fungistatic
